Laboratory results taken from patent US9809697B2, “Crosslinking agent, crosslinked polymer, and compound” (THE NIPPON SYNTHETIC CHEMICAL INDUSTRY CO., LTD., priority 2013, dated 2017).

Assay: Solubility in water
Type: physicochemical
Conditions: solubility in 100 g of water at 23° C.
Experimental: The white solid obtained above was examined for solubility in 100 g of water at 23° C.

Row | Crosslinking agent Solubility | Structure (SMILES)
1 | 12.5 g | NNC(=O)CCCCC(=O)NN [ADH, adipic acid dihydrazide]
2 | 150 g | CN(N)C(=O)CCCCC(=O)N(C)N [formula (4)]
